Reference: article PMC10485906, “Development of a Dihydroquinoline–Pyrazoline GluN2C/2D-Selective Negative Allosteric Modulator of the N-Methyl-D-aspartate Receptor” (ACS Chemical Neuroscience, 2023)
Each block holds one molecule with its values, some of them ahead of it.

Columns and labels:
GluN1-4a/GluN3B = GluN1-4a/GluN3B (Rattus norvegicus, UniProt P35439+Q8VHN2); assay: Off-target, oocytes, GluN1-4a/GluN3B; format: cell-based; conditions: 1 µM compound; 100 µM glycine
Description: (§1) Analysis of Off-target Actions
(§2) Compound (S)-(-)-2i was tested at 1 µM for actions at glycine-activated GluN1/GluN3A (human GluN1-F484A,T518L/GluN3A referred to a GluN1-FA,TL/GluN3A) and rat GluN1-4a/GluN3B in the presence of 0.5 µM CGP-78608. cRNA injection ratios for GluN1/GluN3 were 1:2. Compound (S)-(-)- 2i was also tested for actions at AMPA (rat GluA1, rat GluA2, human GluA3-L531Y), kainate (rat GluK2), nicotinic acetylcholine (rat α7 and α4β2, cRNA ratio 1:1), GABAA (rat α1β2γ2S, cRNA ratio 1:1:1), GABAC (rat ρ1), glycine (rat α1), and purinergic (human P2X) receptors expressed in Xenopus oocytes. cRNA encoding the receptor subunits was synthesized from linear template cDNA using the mMessage mMachine kit (Ambion). Oocytes were injected with 1-5 ng cRNA in a 50 nL volume and incubated in Barth's solution at 15°C for 2-5 days prior to recording. GluK2-expressing oocyte were incubated in 1 mg/ml (10 µM) concanavalin-A for 10 min prior to recording. The cDNAs encoding GABAC and glycine subunits were provided by Dr. D. Weiss (University of Texas Health Science Center at San Antonio). cDNAs encoding nicotinic acetylcholine receptor subunits were provided by Drs. […]
(§3) GABA. […] Responses in presence of test compound were expressed as a percent of control. […]

1b22-GABA = molecular target: T1, 1b22-GABA (Rattus norvegicus, UniProt P18508+P62813+P63138); assay: Off-target, oocytes, GABAA; format: cell-based; conditions: 1 µM compound; 100 µM GABA
T1 construct: expressed in transfected cells; host or cells: Xenopus oocytes (cRNA injection, 1:1:1)
Description: as §1, §2, §3

GluN1/GluN2D = GluN1/GluN2D (Rattus norvegicus, UniProt Q62645); set-up: GluN2B (NM_012574.1), GluN2C (NM_012575.3), and GluN2D (NM_022797.2) were provided by; expressed in transfected cells; host or cells: Xenopus laevis oocytes (cRNA injection); conditions: cited from earlier work
Tsc1^± mice = assay: Acute epileptic mouse model, EEG recordings of seizures; format: in vivo
Description: All experiments were conducted in agreement with the requirements of the European Directive 2010/63/EU. Mice were housed in ventilated, light-tight, sound-isolated chambers under a standard 12:12 light/dark cycle (light on at […]) with food and water available ad libitum. C57BL/6J wild-type (Tsc1^+/+) females from Janvier Laboratories (France) were crossed with heterozygote Tsc1^± male mice with the genetic background B6;129S4-Tsc1^tm1.1Djk/Nci. The genotyping of pups issuing from this cross-breeding was performed on tail tissue samples at postnatal day P9. The study was conducted in Tsc1^± male mice at P14–16. Pups from at least three deliveries for each condition were studied to minimize the potential sampling bias.
The DQP derivative 2i was diluted in DMSO at a concentration of 100 mM before being added to 100 to 150 μL of saline solution and intraperitoneally injected in mice. Intraperitoneal injection was administered during the EEG recordings at three different concentrations: 7, 14, and 28 mg/kg to estimate the dose–response relationship.
Experiments were performed on postnatal days of P14 and P16 male Tsc1^± mice. Surgery was performed under isoflurane anesthesia and lidocaine analgesia. During recordings, the head was fixed to the frame of a stereotaxic apparatus by attached bars; animals were surrounded by a cotton nest and heated via a thermal pad (36.6–37.7 °C). A silver chloride reference electrode was placed in the cerebellum. EEG recordings were performed with nonanaesthetized head-restrained Tsc1^± mice. […] Recordings were analyzed offline using Clampfit (Molecular Devices, San Jose) and Origin (MicroCal, Northampton, MA) software. […] During EEG recordings, animals were monitored visually to determine the behavioral correlates of each electrographic epileptic discharge. […]

GluN1/GluN2D, sequence (Q62645 28-1323, other chains not shown): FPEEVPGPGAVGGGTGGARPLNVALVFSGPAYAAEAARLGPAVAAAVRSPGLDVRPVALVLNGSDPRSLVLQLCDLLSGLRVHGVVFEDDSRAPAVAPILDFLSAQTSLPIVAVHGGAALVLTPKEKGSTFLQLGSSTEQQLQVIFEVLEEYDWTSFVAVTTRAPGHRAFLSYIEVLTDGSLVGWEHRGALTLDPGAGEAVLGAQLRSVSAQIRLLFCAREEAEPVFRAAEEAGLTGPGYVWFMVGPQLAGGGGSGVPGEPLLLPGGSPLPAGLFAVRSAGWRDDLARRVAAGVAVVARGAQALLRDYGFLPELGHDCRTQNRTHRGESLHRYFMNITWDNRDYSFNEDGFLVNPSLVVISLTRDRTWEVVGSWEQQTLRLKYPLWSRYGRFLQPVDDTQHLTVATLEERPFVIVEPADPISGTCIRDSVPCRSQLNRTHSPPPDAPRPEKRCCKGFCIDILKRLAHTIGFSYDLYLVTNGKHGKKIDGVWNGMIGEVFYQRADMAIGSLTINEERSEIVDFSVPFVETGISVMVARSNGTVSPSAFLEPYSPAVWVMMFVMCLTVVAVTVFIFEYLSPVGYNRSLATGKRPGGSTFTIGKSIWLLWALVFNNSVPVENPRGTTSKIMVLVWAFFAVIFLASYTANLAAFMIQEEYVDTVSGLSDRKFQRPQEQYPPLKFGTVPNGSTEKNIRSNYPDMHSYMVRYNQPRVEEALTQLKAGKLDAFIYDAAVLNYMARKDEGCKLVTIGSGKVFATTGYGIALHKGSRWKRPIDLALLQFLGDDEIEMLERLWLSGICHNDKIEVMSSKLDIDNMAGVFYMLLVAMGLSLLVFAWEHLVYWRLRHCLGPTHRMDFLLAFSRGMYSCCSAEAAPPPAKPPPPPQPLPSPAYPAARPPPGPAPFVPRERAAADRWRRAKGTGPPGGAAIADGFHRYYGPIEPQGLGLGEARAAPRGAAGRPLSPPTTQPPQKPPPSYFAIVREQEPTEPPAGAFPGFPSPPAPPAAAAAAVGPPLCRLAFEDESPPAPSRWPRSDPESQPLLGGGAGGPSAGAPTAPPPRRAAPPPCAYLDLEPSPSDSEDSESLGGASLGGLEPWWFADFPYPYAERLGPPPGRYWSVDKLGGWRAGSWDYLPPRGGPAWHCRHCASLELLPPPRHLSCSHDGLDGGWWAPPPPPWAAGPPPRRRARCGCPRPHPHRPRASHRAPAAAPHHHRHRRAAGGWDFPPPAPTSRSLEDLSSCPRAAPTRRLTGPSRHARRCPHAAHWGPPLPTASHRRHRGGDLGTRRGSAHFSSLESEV
GluN1-4a/GluN3B, sequence (Q8VHN2 25-1002, other chains not shown): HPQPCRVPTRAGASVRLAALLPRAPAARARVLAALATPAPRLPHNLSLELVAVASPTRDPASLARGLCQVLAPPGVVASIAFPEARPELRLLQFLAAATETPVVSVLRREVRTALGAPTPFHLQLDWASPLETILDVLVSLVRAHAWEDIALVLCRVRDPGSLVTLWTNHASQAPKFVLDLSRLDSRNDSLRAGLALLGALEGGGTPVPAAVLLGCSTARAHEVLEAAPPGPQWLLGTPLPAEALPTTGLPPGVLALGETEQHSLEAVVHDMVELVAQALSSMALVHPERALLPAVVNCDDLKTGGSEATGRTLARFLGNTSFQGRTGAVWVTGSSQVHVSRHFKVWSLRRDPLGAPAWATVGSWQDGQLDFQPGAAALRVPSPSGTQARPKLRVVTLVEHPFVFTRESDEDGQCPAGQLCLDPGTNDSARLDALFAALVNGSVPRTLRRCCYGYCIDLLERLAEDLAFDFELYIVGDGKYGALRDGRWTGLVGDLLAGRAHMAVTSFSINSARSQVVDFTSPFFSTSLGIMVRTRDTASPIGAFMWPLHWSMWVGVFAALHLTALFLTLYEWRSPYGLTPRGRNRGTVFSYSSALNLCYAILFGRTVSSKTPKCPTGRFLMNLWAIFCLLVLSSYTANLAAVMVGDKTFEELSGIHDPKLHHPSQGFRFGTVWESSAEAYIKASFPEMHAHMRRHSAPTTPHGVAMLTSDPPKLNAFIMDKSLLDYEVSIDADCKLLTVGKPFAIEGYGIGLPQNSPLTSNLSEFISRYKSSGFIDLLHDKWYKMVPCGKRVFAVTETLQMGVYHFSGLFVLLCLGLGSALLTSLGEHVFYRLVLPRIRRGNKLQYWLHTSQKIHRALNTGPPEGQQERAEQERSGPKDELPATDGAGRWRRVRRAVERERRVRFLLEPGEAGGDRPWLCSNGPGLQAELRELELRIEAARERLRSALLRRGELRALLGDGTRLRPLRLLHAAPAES
T1 sequence (P62813 28-455): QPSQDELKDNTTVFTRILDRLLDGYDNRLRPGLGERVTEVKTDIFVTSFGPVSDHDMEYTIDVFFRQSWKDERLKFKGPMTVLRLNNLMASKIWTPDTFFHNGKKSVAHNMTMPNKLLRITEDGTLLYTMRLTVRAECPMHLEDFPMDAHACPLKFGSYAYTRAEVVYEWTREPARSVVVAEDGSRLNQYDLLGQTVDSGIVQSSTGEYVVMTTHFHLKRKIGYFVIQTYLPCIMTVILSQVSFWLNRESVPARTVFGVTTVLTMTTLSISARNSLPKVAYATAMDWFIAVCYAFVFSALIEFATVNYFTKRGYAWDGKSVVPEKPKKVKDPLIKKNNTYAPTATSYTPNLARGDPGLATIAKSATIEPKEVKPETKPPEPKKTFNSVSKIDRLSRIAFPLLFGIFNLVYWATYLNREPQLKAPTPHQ
T1 sequence (P63138 25-474 limits assumed): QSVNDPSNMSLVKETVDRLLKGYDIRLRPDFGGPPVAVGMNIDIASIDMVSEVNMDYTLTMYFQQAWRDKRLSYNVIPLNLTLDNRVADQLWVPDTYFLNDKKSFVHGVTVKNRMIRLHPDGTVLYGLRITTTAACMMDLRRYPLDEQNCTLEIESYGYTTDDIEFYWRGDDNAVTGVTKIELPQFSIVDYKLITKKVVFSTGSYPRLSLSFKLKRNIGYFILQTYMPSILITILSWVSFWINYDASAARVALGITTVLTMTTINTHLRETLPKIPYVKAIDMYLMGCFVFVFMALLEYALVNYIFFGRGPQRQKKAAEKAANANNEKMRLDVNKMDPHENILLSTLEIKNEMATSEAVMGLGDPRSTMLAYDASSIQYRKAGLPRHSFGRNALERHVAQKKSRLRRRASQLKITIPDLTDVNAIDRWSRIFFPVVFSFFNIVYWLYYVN
T1 sequence (P18508 39-466): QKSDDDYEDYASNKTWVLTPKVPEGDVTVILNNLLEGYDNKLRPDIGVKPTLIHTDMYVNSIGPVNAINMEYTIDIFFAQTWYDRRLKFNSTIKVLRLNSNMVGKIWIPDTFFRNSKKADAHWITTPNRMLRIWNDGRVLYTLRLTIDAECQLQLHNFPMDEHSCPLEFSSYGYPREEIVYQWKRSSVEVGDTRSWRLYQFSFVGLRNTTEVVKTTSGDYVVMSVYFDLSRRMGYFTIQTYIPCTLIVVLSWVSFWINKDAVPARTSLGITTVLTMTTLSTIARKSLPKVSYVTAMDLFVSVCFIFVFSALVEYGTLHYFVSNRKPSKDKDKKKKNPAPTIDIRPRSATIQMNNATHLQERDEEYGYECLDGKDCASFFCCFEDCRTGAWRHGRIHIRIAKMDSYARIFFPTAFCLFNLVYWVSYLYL

% control GluN1-4a/GluN3B (GluN1-4a/GluN3B): 97 ± 1.0%
% control 1b22-GABA (1b22-GABA): 85 ± 2.0%
SMILES: O=C(O)CC(F)(F)C(=O)N1N=C(c2c(-c3ccc(Cl)cc3)c3ccccc3[nH]c2=O)C[C@H]1c1ccc(Cl)cc1 [(S)-(−)-2i]

SMILES: O=C(O)CCC(=O)N1N=C(c2c(-c3ccc(Cl)cc3)c3ccccc3[nH]c2=O)CC1c1ccc(Cl)cc1 (centres unmarked) [2a]
I 30 μM / I control GluN2D (GluN1/GluN2D; 30 μM, reproduced for comparison): 2.0 ± 1.0 (2,5) %
Selectivity 2A IC50 / 2D IC50 (GluN1/GluN2D; GluN2D over GluN2A): 48 fold
Selectivity 2B IC50 / 2D IC50 (GluN1/GluN2D; GluN2D over GluN2B): 50 fold

SMILES: O=C(O)CC(F)(F)C(=O)N1N=C(c2c(-c3ccc(Cl)cc3)c3ccccc3[nH]c2=O)CC1c1ccc(Cl)cc1 (centres unmarked) [2i]
effect on spontaneous electrographic seizures (Tsc1^± mice; 14 mg/kg IP, male Tsc1^± mice P14–16, neocortical layers 2/3 and 4): significantly reduced spontaneous electrographic seizures
effect on epileptic events (Tsc1^± mice; 28 mg/kg IP, male Tsc1^± mice P14–16): epileptic events stopped immediately
effect on number of epileptic events (Tsc1^± mice; murine model of TSC-induced epilepsy, abstract): significantly reduced the number of epileptic events
